The source of these data is patent publication US11793852B2, “Application of Longhu Rendan in preparing medicament for preventing and/or treating liver fibrosis” (Shanghai Zhonghua Pharmaceutical Co., Ltd, priority 2017, dated 2023).

SMILES strings stand for the structures.

The test system of assay [1] is mice with liver fibrosis induced by CCl4. In words: Serological indicators (serum AST and ALT activity) in mice with liver fibrosis induced by CCl4. It is filed as in vivo. The following applies: silybin 70 mg/kg/d, gastric perfusion, 6 weeks; compared to the CCl4 group, P<0.05. The method, then: (§1) Experimental animals: SPF grade C57 mice, 8-week old, half male and half female, supplied by Guangdong Medical Lab Animal Center, housed in an animal room in a barrier environment (SPF grade), and feeds and water and libitum. Certificate [SCXK(YUE) 2013-0002].
Administration: 32 pills of Longhu Rendan were placed in a mortar and ground, dissolved in 20 mL of 0.5% CMC-Na, pipetted into a 50-mL centrifuge tube, vortexed to be completely dissolved, and made up to 32 mL (solution A). Six 5-ml EP tubes were charged with the solution A per 3 mL/tube (namely, daily dosage for a high-dose group). Another 50-mL tube was charged with 9 ml of the solution A, added with 9 mL 0.5% CMC-Na, and mixed uniformly; and six 5-ml EP tubes were charged with the solution per 3 mL/tube (namely, daily dosage for a medium-dose group). Another 50-mL centrifuge tube was charged with 4.5 ml of the solution A, added with the 0.5% CMC-Na solution to 18 mL, and mixed uniformly; and six 5-ml EP tubes were charged with the solution per 3 mL/tube (namely, daily dosage for a low-dose group). Continue for 6 weeks, 6×32 pills=192 pills in total, about 4 boxes. […]
After fasting for 12 h, the eyeballs were removed and blood was taken and serum was separated. ALT and AST activities were determined by alanine aminotransferase (ALT) and aspartate aminotransferase (AST) kits.

Assay [2] shares this test system. The assay can be described thus: Pathological indicators (HE, Sirius Red, α-SMA immunohistochemical staining of livers) in mice with liver fibrosis induced by CCl4. In kind it is in vivo. To be noted: silybin 70 mg/kg/d, 6 weeks. The method, then: as §1
Administration: 32 pills of Longhu Rendan were placed in a mortar and ground, dissolved in 20 mL of 0.5% CMC-Na, pipetted into a 50-mL centrifuge tube, vortexed to be completely dissolved, and made up to 32 mL (solution A). Six 5-ml EP tubes were charged with the solution A per 3 mL/tube (namely, daily dosage for a high-dose group). Another 50-mL tube was charged with 9 ml of the solution A, added with 9 mL 0.5% CMC-Na, and mixed uniformly; and six 5-ml EP tubes were charged with the solution per 3 mL/tube (namely, daily dosage for a medium-dose group). Another 50-mL centrifuge tube was charged with 4.5 ml of the solution A, added with the 0.5% CMC-Na solution to 18 mL, and mixed uniformly; and six 5-ml EP tubes were charged with the solution per 3 mL/tube (namely, daily dosage for a low-dose group). Continue for 6 weeks, 6×32 pills=192 pills in total, about 4 boxes.
Formulation of silybin: one 50-mL centrifuge tube was added with 10 to 12 mL of 0.5% CMC-Na, charged with 4 capsules, dissolved, made up to 20 mL with 0.5% CMC-Na, and mixed uniformly. Six 5-ml EP tubes were charged with the solution per 3 mL/tube (namely, daily dosage). Continue for 6 weeks, 6×4 capsules=24 capsules in total, about 2 boxes.
[…] healthy KM mice were randomly divided into 6 groups with 8 mice/group. Namely: a blank control group, a CCl4 model group, a silybin positive control group, and low, medium, and high dose groups of Longhu Rendan. All groups received a normal diet. […]
HE staining, Sirius Red staining, and smooth muscle actin protein α-SMA immunohistochemical staining. Positive staining areas of Sirius Red staining and immunohistochemical staining were calculated by the ImageJ software, data was processed and plotted by GraphPadPrism, and t-test analysis was performed, where P<0.05 was considered statistically significant.

Take `COc1cc(C2Oc3cc([C@H]4Oc5cc(O)cc(O)c5C(=O)[C@@H]4O)ccc3OC2CO)ccc1O` (stereo partly shown) [silybin]: in assay [1], the “serum AST activity” value is recorded as “significantly reduced”. In assay [2], the “degree of fibrosis (Sirius Red staining of mouse livers)” value is “significantly improve the degree of fibrosis” and the “degree of fibrosis (α-SMA immunohistochemical staining of mouse livers)” value is “significantly improve the degree of fibrosis”. In assay [2] (compared to the CCl4 model group), the “inflammatory infiltration and liver injury (HE staining of mouse livers)” value is “improved at different degrees”.
